Results on 1 compound are retold here after patent US20050101632A1, “Method for the treatment of inflammation” (priority 2000, published 2005).

The data set deals with oxazolone-induced hypersensitivity reaction in oxazolone-sensitized mice. Kind of data set: Oxazolone-induced delayed-type hypersensitivity (dermal sensitization) in mice. Type of data set: in vivo, CD1 mice.

On to `C[C@]12CCC(=O)C=C1CC[C@@H]1[C@@H]2[C@@H](O)C[C@@]2(C)[C@H]1CC[C@]2(O)C(=O)CO` [hydrocortisone], for which the “body weight (systemic effect)” value (1% hydrocortisone topical during the challenges, FIG. 7) is “decrease of body weight”. The “suppression of mean increase of ear thickness (MIET)” value (first challenge (acute inflammation), 1% topical twice daily, FIG. 4) was 74%. Further, the “erythema of the ear” value (first challenge, topical twice daily) was “reduced erythema of the ear”.
